Laboratory results published in patent US4767749A, “Ester of (triarylphosphoranylidene)carbamic acid having diuretic and ability to lower plasma renin properties” (American Cyanamid Company, priority 1986, dated 1988).
Read-outs that look alike come from different tables or passages of the source.

Columns and labels:
[1] = tested on: plasma renin activity; assay: Inhibition of evoked (drug-induced) elevation of plasma renin activity in conscious rats; assay type: in vivo, male Wistar rats; conditions: Rattus norvegicus, 30 min before provocative treatment; for inhibition in vivo at 25 mg/kg: 25 mg/kg oral
Experimental: Inhibition of evoked increase of plasma renin activity was determined by the following test.
Compounds were tested for their ability to prevent drug-induced elevation of plasma renin activity (PRA) in concious, male Wistar rats (180-200 g, Charles River Lab.). PRA elevation was induced by a combined oral provacative treatment (C) of hydrochlorothiazide (10 mg/kg) and 1-(3-benzoyl-3-mercapto-2-methylpropionyl)-L-proline, acetate (U.S. Pat. No. 4,226,775) (one mg/kg), prepared by compounding in a mortar and pestle with preboiled 3% starch suspension. This treatment provided the daily maximum PRA. The daily minimum PRA was obtained from rats given oral starch suspension (S) alone. The magnitude of drug effect on PRA elevation was ascertained from rats pretreated orally with test agent (D), at the indicated doses, 30 minutes prior to administration of provacative treatment (C). The test agent was also compounded in preboiled 3% starch suspension. The dose volumes for both pretreatment and provocative treatment were 2 ml/kg. One hour after provocative treatment the rats were sacrificed by decapitation and the first 3 seconds of blood collected in two chilled Vacutainer® tubes (Becton-Dickinson, Rutherford, N.J.) containing 40 μl of 150 mg/ml tripotassium EDTA. The plasma fractions, obtained by centrifugation for 20 minutes at 4° C. and 3000 G, were incubated (one of each pair at 37° C., the other at 4° C.) at pH 6.8 in 50 mM phosphate buffer to produce angiotensin I. The incubates contained peptidase inhibitors to prevent angiotensin I degradation and the incubation buffer contained one mg/ml lysozyme (Sigma Grade III) used as an antiabsorbant. The incubates were diluted 20 fold in cold 100 mM Tris buffer (pH adjusted to 7.4 with glacial acetic acid) also containing one mg/ml lysozyme, and then frozen. Diluted incubates were assayed within 3 days for angiotensin I content by radioimmunoassay according to a modification of the method of Haber, et al., J. Clin. Endocrin., 29, 1349-1355 (1969).
PRA is calculated as follows:
PRA(ng AI/hour/ml plasma)=PRA 37° C.-PRA 4° C.
Percent inhibition of PRA elevation is calculated as follows: [formula]

[2] = tested on: spontaneously hypertensive rats (SHR); assay: Diuretic activity in spontaneously hypertensive rats; assay type: in vivo, male spontaneously hypertensive rats (Okamoto strain); conditions: 100 mg/kg by gavage with 0.9% sodium chloride loading 25 ml/kg; 0-5 hour urine
Experimental: The diuretic activity of the compounds of this invention was also determined according to the method of Chan, P. S. and Poorvin, D., Sequential method for combined screening antihypertensive and diuretic agents in the same spontaneously hypertensive rat. Clinical and Experimental Hypertension, 1(6), 817-830 (1979).
Male spontaneously hypertensive rats (SHR) of Okamoto strain, 16 weeks old, Taconic Farms Inc. were used in the test. These rats were kept on Purina laboratory chow and tap water ad libitum for 8 weeks before use. One male adult rat (about 300 g) was dosed by gavage with a test compound at 100 mg/kg together with 0.9% sodium chloride loading at 25 ml/kg at zero hour. The test compound was suspended in 3% preboiled starch at 50 mg/ml. The rat was put in a metabolism cage. The 0-5 hour urine was collected and urinary sodium and potassium were determined using a Beckman Astra 4. The effects of representative compounds of the invention according to this test appear in Table III expressed in milliequivalents (mEQ) of urinary sodium and potassium excreted.

[3] = tested on: cardiac contractility in anesthetized dogs; assay: Effect on cardiac contractility in anesthetized dogs, intravenous; assay type: in vivo, dog; conditions: intravenous administration; same effect as in isolated rat heart (Table IV)
[4] = tested on: isolated rat hearts; assay: Cardiodynamic effects in the isolated perfused rat heart preparation; conditions: for activation at 1 µg/mL / activation at 4 µg/mL / activation at 8 µg/mL: Rattus norvegicus; for HR (mean % change): rate of cardiac contraction
Experimental: The effect of (triphenylphospharnylidene)carbamic acid, ethyl ester on cardiac contractility was determined by the following test.
Isolated rat hearts were prepared and perfused essentially as described by Neely and Rovetto, Techniques for perfusing isolated rat hearts., in Methods of Enzymology, 24, part D, 43-60 (1975), J. G. Hardman and B. W. O'Malley (eds.), Academic Press, New York, N.Y. The hearts were cooled in ice cold saline and transferred to a Langendorff apparatus and perfused in a retrograde fashion with oxygenated Krebs-Henseleit buffer at 37° C. A 2-0 silk thread was secured to the left ventricular apex and run via pulleys to a force displacement transducer (Grass Instrument Co., model FT03C). Force of contraction (F), the first derivative of force with respect to time (dF/dt), and rate of cardiac contraction (HR) were monitored on a polygraph recorder (Grass Instrument Co., model 7D).
The perfusion medium was a modified Krebs-Henseleit buffer of the following composition:
This medium was equilibrated with 95% oxygen:5% carbon dioxide at 37° C.
(Triphenylphosphoranylidene)carbamic acid, ethyl ester was dissolved in absolute ethanol at a concentration of 10 mg/ml and then diluted with Krebs-Henseleit buffer to the required stock concentration. The stock solution was infused at a constant rate by a syringe pump into the flow of buffer presented to the isolated heart at a rate necessary to achieve the desired final concentration.

[5] = tested on: plasma renin activity; assay: Lowering of plasma renin activity in normal conscious rats; assay type: in vivo, male Wistar rats; conditions: single 25 mg/kg oral dose, 6 rats
Experimental: Compounds were tested for their ability to lower plasma renin activity of conscious, male Wistar rats (180-200 g, Charles River Labs.). Test agents were compounded in a mortar and pestle with 3% preboiled starch suspension. Rats were dosed orally by gavage with 25 mg/kg test agent in a dose volume of 2 ml/kg. At time zero and 1/3, 1, 3 and 6 hours relative to dosing, rats were sacrificed by decapitation and the first 3 seconds of blood collected in two chilled Vacutainer® tubes (Becton-Dickinson, Rutherford, N.J.) containing 40 μl of 150 mg/ml tripotassium EDTA. Plasma fractions, obtained by centrifugation for 20 minutes at 4° C. and 3000 G, were incubated (one of each pair at 37° C., the other at 4° C.) at pH 6.8 in 50 mM phosphate buffer to produce angiotensin I. The incubates contained peptidase inhibitors to prevent angiotensin I degradation and the buffer contained one mg/ml lysozyme (Sigma Grade III) used as an antiabsorbant. The incubates were diluted 20 fold in cold Tris buffer (pH adjusted to 7.4 with glacial acetic acid) also containing one mg/ml lysozyme, and then frozen. Diluted incubates were assayed within 3 days for angiotensin I content by radioimmunoassay according to a modification of the method of Haber, et al., J. Clin. Endocrin., 29, 1349-1355 (1969). Renin activity is calculated as the rate of production of angiotensin I (nanograms of angiotensin I/ml plasma/hour at 37° C.) less controls (rate at 4° C.).

| Compound | inhibition in vivo at 25 mg/kg [1] | Potassium (urinary excretion) [2] | Sodium (urinary excretion) [2] | Volume (urine) [2] | also measured |
| --- | --- | --- | --- | --- | --- |
| CCOC(=O)N=P(c1ccccc1)(c1ccccc1)c1ccccc1C(F)(F)F [[diphenyl[2-(trifluoromethyl)phenyl]phosphoranylidene]carbamic acid, ethyl ester] | 75% | 0.91 mEQ/5 Hours | 2.12 mEQ/5 Hours | 19.3 mL |  |
| Cc1ccccc1P(=NC(=O)OCC1CC1)(c1ccccc1)c1ccccc1 [[(2-methylphenyl)diphenylphosphoranylidene]carbamic acid, cyclopropylmethyl ester] | 72% | 0.73 mEQ/5 Hours | 1.33 mEQ/5 Hours | 12.0 mL |  |
| CCOC(=O)N=P(c1ccccc1)(c1ccccc1)c1ccccc1 [(Triphenylphosphoranylidene)carbamic acid, ethyl ester] | 80% | 0.50 mEQ/5 Hours | 1.86 mEQ/5 Hours | 15.5 mL | inhibition in vivo at 3 mg/kg ([1]; 3 mg/kg oral): 22%; inhibition in vivo at 5 mg/kg ([1]; 5 mg/kg oral): 29%; inhibition in vivo at 7 mg/kg ([1]; 7 mg/kg oral): 46%; inhibition in vivo at 10 mg/kg ([1]; 10 mg/kg oral): 81%; inhibition in vivo at 15 mg/kg ([1]; 15 mg/kg oral): 79%; effect on cardiac contractility in anesthetized dogs [3]: The same effect has been achieved; activation at 1 µg/mL ([4]; final drug concentration 1 mg/liter, 7 hearts, read-out: Concentration Force (g) (mean % change)): 5%; activation at 1 µg/mL ([4]; final drug concentration 1 mg/liter, 7 hearts, read-out: dF/dt (g/sec) (mean % change)): 6%; activation at 4 µg/mL ([4]; final drug concentration 4 mg/liter, 6 hearts, read-out: Concentration Force (g) (mean % change)): 18%; activation at 4 µg/mL ([4]; final drug concentration 4 mg/liter, 6 hearts, read-out: dF/dt (g/sec) (mean % change)): 16%; activation at 8 µg/mL ([4]; final drug concentration 8 mg/liter, 5 hearts, read-out: Concentration Force (g) (mean % change)): 24%; activation at 8 µg/mL ([4]; final drug concentration 8 mg/liter, 5 hearts, read-out: dF/dt (g/sec) (mean % change)): 21%; HR (mean % change) ([4]; final drug concentration 1 mg/liter, 7 hearts): -3 mean % change; HR (mean % change) ([4]; final drug concentration 4 mg/liter, 6 hearts): -2 mean % change; HR (mean % change) ([4]; final drug concentration 8 mg/liter, 5 hearts): -2 mean % change; % Lowering of plasma renin activity ([5]; 0 hours after dose): 0%; % Lowering of plasma renin activity ([5]; 1/3 hour after dose): 38%; % Lowering of plasma renin activity ([5]; 1 hour after dose): 74%; % Lowering of plasma renin activity ([5]; 3 hours after dose): 59%; % Lowering of plasma renin activity ([5]; 6 hours after dose): 40% |
| COC(=O)N=P(c1ccccc1)(c1ccccc1)c1c(C)cccc1C [[(2,6-dimethylphenyl)diphenylphosphoranylidene]carbamic acid, methyl ester] | 68% | 0.84 mEQ/5 Hours | 1.33 mEQ/5 Hours | 12.8 mL |  |
| CCOC(=O)N=P(c1ccccc1)(c1ccccc1)c1ccccc1Cl [[(2-chlorophenyl)diphenylphosphoranylidene]carbamic acid, ethyl ester] | 96% | 0.71 mEQ/5 Hours | 2.05 mEQ/5 Hours | 19.5 mL |  |
| Cc1ccccc1P(=NC(=O)OCc1cccnc1)(c1ccccc1)c1ccccc1 [[(2-Methylphenyl)diphenylphosphoranylidene]carbamic acid, 3-pyridinylmethylester] | 75% | 0.62 mEQ/5 Hours | 1.48 mEQ/5 Hours | 12.3 mL |  |
| COC(=O)N=P(c1ccccc1)(c1ccccc1)c1ccccc1C(F)(F)F [[diphenyl[2-(trifluoromethyl)phenyl]phosphoranylidene]carbamic acid, methyl ester] | 49% | 1.02 mEQ/5 Hours | 1.71 mEQ/5 Hours | 18.5 mL |  |
